Source: patent US20100056568A1, “Cycloalkylamine substituted isoquinolone and isoquinolinone derivatives” (sanofi-aventis, priority 2006, published 2010)
pIC50: −log10 of the molar value. Counter-ions that a name gives are not always drawn.

These compounds were tested against T1, human recombinant ROCK II (Homo sapiens, UniProt O75116) (assay: Determination of Rho kinase inhibition (Caliper peptide phosphorylation assay)). Settings: negative decadal logarithm of the IC50; ROCK II residues 11-552, fluorescein peptide substrate, 60 min at 32° C.; tested as salt or free base obtained in the examples.
T1 construct: recombinant human ROCK-II residues 11-552; His6 (N); purchased Upstate Ltd., Dundee, UK
T1 sequence (O75116 11-552): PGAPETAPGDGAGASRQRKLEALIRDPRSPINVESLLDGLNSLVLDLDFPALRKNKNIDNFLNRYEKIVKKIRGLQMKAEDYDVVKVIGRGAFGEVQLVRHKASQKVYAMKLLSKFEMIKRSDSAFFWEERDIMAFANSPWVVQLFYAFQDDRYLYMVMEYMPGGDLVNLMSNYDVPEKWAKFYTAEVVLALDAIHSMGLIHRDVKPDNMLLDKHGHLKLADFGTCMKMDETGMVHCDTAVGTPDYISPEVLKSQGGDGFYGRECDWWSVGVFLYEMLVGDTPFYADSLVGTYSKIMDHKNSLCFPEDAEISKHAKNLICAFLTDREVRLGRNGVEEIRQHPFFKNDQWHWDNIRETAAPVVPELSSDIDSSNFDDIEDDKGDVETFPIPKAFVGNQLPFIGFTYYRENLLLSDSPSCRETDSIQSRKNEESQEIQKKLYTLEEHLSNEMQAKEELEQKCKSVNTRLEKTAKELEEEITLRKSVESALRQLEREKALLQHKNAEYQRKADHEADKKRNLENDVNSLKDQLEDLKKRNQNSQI
Type: biochemical
Description: To measure Rho-kinase inhibition, IC50 values were determined according to the following protocol:
Active human recombinant ROCK II (N-terminal His6-tagged recombinant human ROCK-II residues 11-552) was purchased from Upstate Ltd., Dundee, UK. The peptide substrate, Fluorescein-AKRRRLSSLRA-COOH, was obtained from JPT Peptide Technologies, Berlin, Germany. Adenosine-5′-triphosphate (ATP), bovine serum albumine (BSA), dimethylsulphoxide (DMSO), 4-(2-Hydroxyethyl)piperazine-1-ethanesulfonic acid (Hepes), Brij-35 and dithiothreitol (DTT) were purchased from Sigma-Aldrich, Munich, Germany. Tris(hydroxymethyl)-aminomethane (Tris), magnesium chloride, NaOH, 1M HCl and EDTA were obtained from Merck Biosciences, Darmstadt, Germany. “Complete” protease inhibitor was from Roche Diagnostics, Mannheim, Germany.
Test compounds were diluted to the appropriate concentrations in buffer 1 (25 mM Tris-HCl, pH 7.4, 5 mM MgCl2, 2 mM DTT, 0.02% (w/v) BSA and 3% DMSO). The ROCK II enzyme was diluted to a concentration of 100 ng/ml in buffer 2 (25 mM Tris-HCl, pH 7.4, 5 mM MgCl2, 2 mM DTT and 0.02% (w/v) BSA). The peptide substrate and ATP were diluted to concentrations of 3 μM and 120 μM, respectively, in the buffer 2. Two μl of the compound solution were mixed with 2 μl of the diluted enzyme in a 384-well small volume microtiter plate (Greiner, Bio-One, Frickenhausen, Germany), and the kinase reaction was initiated by addition of 2 μl of the solution containing peptide substrate and ATP. After 60 min incubation at 32° C., the reaction was stopped by addition of 20 μl of a solution containing 100 mM Hepes-NaOH, pH 7.4, 0.015% (v/v) Brij-35, 45 mM EDTA and 0.227% chip coating reagent 1 (Caliper Lifescience Inc, Hopkinton, Mass.). Phosphorylation of the substrate peptide was then detected on a Caliper 3000 instrument essentially as described by Pommereau et al (J. Biomol. Screening 9(5), 409-416, 2004). Separation conditions were as follows: Pressure −1.3 psi, upstream voltage −1562 V, downstream voltage −500 V, sample sip time 200 ms. Positive controls (buffer 1 instead of compound) and negative controls (buffer 1 instead of compound and buffer 2 instead of ROCK II) were run in parallel on each plate.
The following products/compounds were tested in said assay by using the respective form (salt or free base) obtained as in the examples described above and the following activities were measured.

| SMILES | pIC50 |
| --- | --- |
| N[C@H]1CCCC[C@H]1Nc1ccc2c(=O)[nH]ccc2c1 (relative stereo) [Compound 40, 6-cis-(2-Amino-cyclohexyl-amino)-2H-isoquinolin-1-one] | ≥ 6.00 |
| N[C@H]1CC[C@H](Nc2ccc3c(=O)[nH]ccc3c2)CC1 [Compound 36, 6-trans-(4-Amino-cyclohexyl-amino)-2H-isoquinolin-1-one] | ≥ 6.00 |
| NC1CCCC(Nc2ccc3c(=O)[nH]ccc3c2)C1 (centres unmarked) [Compound 41, 6-(3-Amino-cyclohexylamino)-2H-isoquinolin-1-one] | ≥ 6.00 |
| CCN(CC)[C@H]1CC[C@@H](Nc2ccc3c(=O)[nH]ccc3c2)CC1 [Compound 44, 6-cis-(4-Diethyl-amino-cyclohexyl-amino)-2H-iso-quinolin-1-one] | 5.00 to 6.00 |
| CCN[C@H]1CC[C@@H](Nc2ccc3c(=O)[nH]ccc3c2)CC1 [Compound 45, 6-cis-(4-ethylamino-cyclohexylamino)-2H-isoquinolin-1-one] | ≥ 6.00 |
| CCCN(CCC)[C@H]1CC[C@@H](Nc2ccc3c(=O)[nH]ccc3c2)CC1 [Compound 46, 6-cis-(4-Dipropyl-amino-cyclohexyl-amino)-2H-iso-quinolin-1-one] | 5.00 to 6.00 |
| CCCN[C@H]1CC[C@@H](Nc2ccc3c(=O)[nH]ccc3c2)CC1 [Compound 47, 6-cis-(4-Propyl-amino-cyclohexyl-amino)-2H-iso-quinolin-1-one] | ≥ 6.00 |
| O=c1[nH]ccc2cc(N[C@H]3CC[C@@H](NCc4ccccc4)CC3)ccc12 [Compound 48, 6-cis-(4-Benzyl-amino-cyclohexyl-amino)-2H-iso-quinolin-1-one] | 5.00 to 6.00 |
| CC(C)N[C@H]1CC[C@@H](Nc2ccc3c(=O)[nH]ccc3c2)CC1 [Compound 49, 6-cis-(4-Isopropyl-amino-cyclohexyl-amino)-2H-iso-quinolin-1-one] | 5.00 to 6.00 |
| O=c1[nH]ccc2cc(N[C@H]3CC[C@@H](NCc4cccc(Cl)c4)CC3)ccc12 [Compound 50, 6-cis-[4-(3-Chloro-benzylamino)-cyclohexyl-amino]-2H-isoquinolin-1-one] | 5.00 to 6.00 |
| O=c1[nH]ccc2cc(N[C@H]3CC[C@@H](NCc4ccc(Cl)cc4)CC3)ccc12 [Compound 51, 6-cis-[4-(4-Chloro-benzylamino)-cyclohexyl-amino]-2H-isoquinolin-1-one] | 5.00 to 6.00 |
| O=c1[nH]ccc2cc(N[C@H]3CC[C@@H](NCC4CCNCC4)CC3)ccc12 [Compound 52, 6-cis-{4-[(Piperidin-4-ylmethyl)-amino]-cyclohexyl-amino}-2H-isoquinolin-1-one] | ≥ 6.00 |
| O=c1[nH]ccc2cc(N[C@H]3CC[C@@H](NC4CC4)CC3)ccc12 [Compound 53, 6-cis-(4-Cyclopropyl-amino-cyclo-hexylamino)-2H-isoquinolin-1-one] | ≥ 6.00 |
| O=c1[nH]ccc2cc(N[C@H]3CC[C@@H](N(C4CC4)C4CC4)CC3)ccc12 [Compound 54, 6-cis-(4-Dicyclo-propyl-amino-cyclohexyl-amino)-2H-isoquinolin-1-one] | ≥ 6.00 |
| N[C@H]1CC[C@@H](Sc2cc3ccncc3cc2Cl)CC1 [Compound 61, cis-4-(7-Chloro-isoquinolin-6-ylsulfanyl)-cyclohexylamine] | ≥ 6.00 |
| N[C@H]1CC[C@@H](Sc2cc3ccncc3cc2Br)CC1 [Compound 62, cis-4-(7-Bromo-isoquinolin-6-ylsulfanyl)-cyclohexylamine hydrochloride] | ≥ 6.00 |
| N[C@H]1CC[C@@H](Sc2cc3cc[nH]c(=O)c3cc2Cl)CC1 [Compound 64, 6-cis-(4-Amino-cyclohexylsulfanyl)-7-chloro-2H-isoquinolin-1-one] | ≥ 6.00 |
